Where “and” joins values, the source holds several entries; their conditions need not be identical. Equal entries are not always repeated.
Experiments:
[1] = target: Casein kinase II subunit alpha' (Homo sapiens) (UniProt P19784); assay: Enzymatic radiometric [Km ATP] KinaseProfiler LeadHunter assay, kinase: CK2-alpha2, catalogue number: 14-689KP The assay has been performed by Eurofins Discovery.; conditions: ATP concentration 10.0 uM, Test compound concentration 10.0 uM
[2] = target: T1, Serine/threonine-protein kinase Chk1 (Homo sapiens) (UniProt O14757); assay: Enzymatic radiometric [Km ATP] KinaseProfiler LeadHunter assay, kinase: CHK1, catalogue number: 14-346KP The assay has been performed by Eurofins Discovery.; conditions: ATP concentration 90.0 uM, Test compound concentration 10.0 uM
T1 sequence (whole entry): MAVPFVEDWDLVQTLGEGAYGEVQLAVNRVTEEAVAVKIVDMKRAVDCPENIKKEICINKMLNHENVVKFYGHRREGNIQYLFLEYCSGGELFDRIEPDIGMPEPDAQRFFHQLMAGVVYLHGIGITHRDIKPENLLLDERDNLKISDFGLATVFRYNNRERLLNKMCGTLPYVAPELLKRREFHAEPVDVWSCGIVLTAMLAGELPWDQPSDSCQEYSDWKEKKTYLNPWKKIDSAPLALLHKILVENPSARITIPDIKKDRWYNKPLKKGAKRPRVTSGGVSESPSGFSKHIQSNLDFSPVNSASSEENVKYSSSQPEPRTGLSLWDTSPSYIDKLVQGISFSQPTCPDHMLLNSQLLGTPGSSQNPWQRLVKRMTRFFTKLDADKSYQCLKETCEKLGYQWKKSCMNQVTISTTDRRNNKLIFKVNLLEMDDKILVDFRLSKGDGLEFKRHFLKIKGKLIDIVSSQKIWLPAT

[3] = target: Rho-associated protein kinase 1 (Homo sapiens) (UniProt Q13464); assay: Enzymatic radiometric [Km ATP] KinaseProfiler LeadHunter assay, kinase: ROCK-I, catalogue number: 14-601KP The assay has been performed by Eurofins Discovery.; conditions: ATP concentration 70.0 uM, Test compound concentration 10.0 uM
Chain of Rho-associated protein kinase 1 (Homo sapiens) (Q13464 2-1354 limits assumed): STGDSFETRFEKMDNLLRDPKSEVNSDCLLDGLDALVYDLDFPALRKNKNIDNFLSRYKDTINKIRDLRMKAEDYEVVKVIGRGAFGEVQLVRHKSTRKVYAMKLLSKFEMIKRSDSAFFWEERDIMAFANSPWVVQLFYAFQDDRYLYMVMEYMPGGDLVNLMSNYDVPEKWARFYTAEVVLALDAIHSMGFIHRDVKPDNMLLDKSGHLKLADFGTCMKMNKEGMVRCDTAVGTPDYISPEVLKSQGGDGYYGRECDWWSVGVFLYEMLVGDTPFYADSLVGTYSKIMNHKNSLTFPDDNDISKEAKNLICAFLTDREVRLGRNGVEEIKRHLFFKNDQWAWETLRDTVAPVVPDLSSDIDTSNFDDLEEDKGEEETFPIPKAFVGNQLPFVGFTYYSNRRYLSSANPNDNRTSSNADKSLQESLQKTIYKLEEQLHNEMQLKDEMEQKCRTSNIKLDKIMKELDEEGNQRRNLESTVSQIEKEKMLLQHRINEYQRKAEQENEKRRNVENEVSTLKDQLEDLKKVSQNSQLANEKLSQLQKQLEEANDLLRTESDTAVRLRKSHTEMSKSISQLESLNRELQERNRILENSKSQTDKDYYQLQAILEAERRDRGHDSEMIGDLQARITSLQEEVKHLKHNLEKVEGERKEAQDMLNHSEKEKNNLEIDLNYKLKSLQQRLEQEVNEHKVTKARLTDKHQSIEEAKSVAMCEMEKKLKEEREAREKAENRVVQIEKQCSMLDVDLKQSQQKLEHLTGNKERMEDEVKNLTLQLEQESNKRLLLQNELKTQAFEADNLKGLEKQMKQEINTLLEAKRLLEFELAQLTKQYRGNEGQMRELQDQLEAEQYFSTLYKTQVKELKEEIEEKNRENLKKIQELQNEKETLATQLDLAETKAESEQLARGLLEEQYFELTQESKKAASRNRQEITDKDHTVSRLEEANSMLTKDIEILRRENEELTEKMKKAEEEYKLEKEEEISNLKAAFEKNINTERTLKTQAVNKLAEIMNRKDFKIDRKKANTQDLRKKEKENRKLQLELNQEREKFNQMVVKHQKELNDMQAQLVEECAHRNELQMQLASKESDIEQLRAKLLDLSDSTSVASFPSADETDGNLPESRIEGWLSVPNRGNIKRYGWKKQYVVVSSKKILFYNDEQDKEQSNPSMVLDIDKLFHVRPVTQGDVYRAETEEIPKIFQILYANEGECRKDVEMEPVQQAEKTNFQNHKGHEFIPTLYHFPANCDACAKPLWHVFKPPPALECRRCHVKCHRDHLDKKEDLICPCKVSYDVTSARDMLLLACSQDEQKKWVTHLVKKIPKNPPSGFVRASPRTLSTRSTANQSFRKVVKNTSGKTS

[4] = target: Epidermal growth factor receptor (Homo sapiens) (UniProt P00533); assay: Enzymatic radiometric [Km ATP] KinaseProfiler LeadHunter assay, kinase: EGFR, catalogue number: 14-531KP The assay has been performed by Eurofins Discovery.; conditions: ATP concentration 10.0 uM, Test compound concentration 10.0 uM
Chain of Epidermal growth factor receptor (Homo sapiens) (P00533 whole entry): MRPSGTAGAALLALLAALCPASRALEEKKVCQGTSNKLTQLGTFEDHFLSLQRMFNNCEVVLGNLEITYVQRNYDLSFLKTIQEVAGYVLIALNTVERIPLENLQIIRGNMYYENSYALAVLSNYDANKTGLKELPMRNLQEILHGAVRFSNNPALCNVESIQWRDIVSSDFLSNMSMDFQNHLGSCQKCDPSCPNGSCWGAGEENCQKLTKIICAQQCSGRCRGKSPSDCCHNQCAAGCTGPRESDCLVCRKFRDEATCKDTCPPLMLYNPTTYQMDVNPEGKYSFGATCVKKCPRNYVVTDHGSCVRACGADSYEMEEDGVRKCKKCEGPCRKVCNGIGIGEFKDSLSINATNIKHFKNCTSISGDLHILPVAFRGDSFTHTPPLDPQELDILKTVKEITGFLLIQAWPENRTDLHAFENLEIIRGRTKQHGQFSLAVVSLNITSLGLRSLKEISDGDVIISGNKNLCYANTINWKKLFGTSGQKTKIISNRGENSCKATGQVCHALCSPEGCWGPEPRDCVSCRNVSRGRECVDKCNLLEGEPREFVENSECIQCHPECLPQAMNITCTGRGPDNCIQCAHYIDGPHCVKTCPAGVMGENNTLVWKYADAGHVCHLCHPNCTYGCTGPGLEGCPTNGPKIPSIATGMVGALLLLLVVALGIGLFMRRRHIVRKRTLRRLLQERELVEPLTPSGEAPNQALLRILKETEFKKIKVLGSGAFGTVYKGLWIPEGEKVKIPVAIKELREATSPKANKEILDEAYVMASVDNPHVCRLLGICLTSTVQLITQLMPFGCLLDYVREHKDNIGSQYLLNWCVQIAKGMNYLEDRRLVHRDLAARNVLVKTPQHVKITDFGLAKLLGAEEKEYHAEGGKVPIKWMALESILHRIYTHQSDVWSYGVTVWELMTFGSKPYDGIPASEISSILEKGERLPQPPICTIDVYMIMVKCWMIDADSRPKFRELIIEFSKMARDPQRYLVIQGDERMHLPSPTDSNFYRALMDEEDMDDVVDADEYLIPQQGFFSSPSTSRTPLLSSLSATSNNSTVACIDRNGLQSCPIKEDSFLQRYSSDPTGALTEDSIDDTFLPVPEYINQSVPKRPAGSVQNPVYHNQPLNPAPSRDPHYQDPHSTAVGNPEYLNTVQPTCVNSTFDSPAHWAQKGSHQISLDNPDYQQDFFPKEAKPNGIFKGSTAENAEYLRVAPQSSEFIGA

[5] = target: Platelet-derived growth factor receptor beta (Homo sapiens) (UniProt P09619); assay: Enzymatic radiometric [Km ATP] KinaseProfiler LeadHunter assay, kinase: PDGFR-beta, catalogue number: 14-463KP The assay has been performed by Eurofins Discovery.; conditions: ATP concentration 200.0 uM, Test compound concentration 10.0 uM
Chain of Platelet-derived growth factor receptor beta (Homo sapiens) (P09619 whole entry): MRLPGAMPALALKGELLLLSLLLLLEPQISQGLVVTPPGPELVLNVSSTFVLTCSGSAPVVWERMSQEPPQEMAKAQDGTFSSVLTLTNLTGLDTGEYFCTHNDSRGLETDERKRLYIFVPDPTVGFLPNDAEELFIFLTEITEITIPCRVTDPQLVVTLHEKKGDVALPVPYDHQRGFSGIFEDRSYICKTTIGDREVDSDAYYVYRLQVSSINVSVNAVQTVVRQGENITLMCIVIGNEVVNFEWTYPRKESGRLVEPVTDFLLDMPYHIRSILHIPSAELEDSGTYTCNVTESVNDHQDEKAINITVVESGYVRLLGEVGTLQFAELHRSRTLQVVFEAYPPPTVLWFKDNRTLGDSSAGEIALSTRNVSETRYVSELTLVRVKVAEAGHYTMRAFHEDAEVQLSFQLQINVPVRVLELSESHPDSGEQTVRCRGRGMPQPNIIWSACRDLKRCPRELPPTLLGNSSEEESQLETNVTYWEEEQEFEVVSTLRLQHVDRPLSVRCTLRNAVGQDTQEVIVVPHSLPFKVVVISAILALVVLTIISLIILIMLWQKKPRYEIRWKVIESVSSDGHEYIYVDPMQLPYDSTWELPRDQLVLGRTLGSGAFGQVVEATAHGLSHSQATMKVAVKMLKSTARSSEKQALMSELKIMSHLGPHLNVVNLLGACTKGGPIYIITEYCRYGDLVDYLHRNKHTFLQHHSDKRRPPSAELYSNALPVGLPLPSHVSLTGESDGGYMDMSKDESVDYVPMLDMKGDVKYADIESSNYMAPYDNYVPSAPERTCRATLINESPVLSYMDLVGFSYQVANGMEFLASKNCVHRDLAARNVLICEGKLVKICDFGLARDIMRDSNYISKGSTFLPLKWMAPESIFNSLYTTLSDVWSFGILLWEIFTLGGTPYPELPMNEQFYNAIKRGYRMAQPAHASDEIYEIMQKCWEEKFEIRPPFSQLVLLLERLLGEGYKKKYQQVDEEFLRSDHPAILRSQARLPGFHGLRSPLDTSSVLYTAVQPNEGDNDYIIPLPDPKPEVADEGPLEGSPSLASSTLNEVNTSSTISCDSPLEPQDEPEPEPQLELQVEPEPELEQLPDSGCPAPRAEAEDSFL

[6] = target: MAP kinase-interacting serine/threonine-protein kinase 2 (Homo sapiens) (UniProt Q9HBH9); assay: Enzymatic radiometric [Km ATP] KinaseProfiler LeadHunter assay, kinase: Mnk2, catalogue number: 14-664KP The assay has been performed by Eurofins Discovery.; conditions: ATP concentration 120.0 uM, Test compound concentration 10.0 uM
Chain of MAP kinase-interacting serine/threonine-protein kinase 2 (Homo sapiens) (Q9HBH9 whole entry, looked up): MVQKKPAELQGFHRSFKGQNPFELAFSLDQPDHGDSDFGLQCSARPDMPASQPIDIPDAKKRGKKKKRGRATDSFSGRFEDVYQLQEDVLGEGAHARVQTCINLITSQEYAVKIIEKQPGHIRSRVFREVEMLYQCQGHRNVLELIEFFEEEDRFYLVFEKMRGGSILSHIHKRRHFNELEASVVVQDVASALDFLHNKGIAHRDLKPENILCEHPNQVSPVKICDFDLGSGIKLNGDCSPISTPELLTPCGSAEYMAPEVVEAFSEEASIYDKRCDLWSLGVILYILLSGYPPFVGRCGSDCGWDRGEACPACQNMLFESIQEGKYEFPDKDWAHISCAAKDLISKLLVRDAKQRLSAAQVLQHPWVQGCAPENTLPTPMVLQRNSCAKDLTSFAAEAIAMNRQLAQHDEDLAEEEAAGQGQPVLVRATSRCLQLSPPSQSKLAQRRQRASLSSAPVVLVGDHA

[7] = target: PI3-kinase p110-delta/p85-alpha (Homo sapiens) (UniProt P27986+O00329); assay: Enzymatic radiometric [Km ATP] KinaseProfiler LeadHunter assay, kinase: PI3 Kinase (p110-delta/p85-alpha), catalogue number: 14-604KP The assay has been performed by Eurofins Discovery.; format: protein-complex assay; conditions: ATP concentration 200.0 uM, Test compound concentration 10.0 uM
[8] = target: T2, Mitogen-activated protein kinase kinase kinase 7 (Homo sapiens) (UniProt O43318); assay: Enzymatic radiometric [Km ATP] KinaseProfiler LeadHunter assay, kinase: TAK1, catalogue number: 14-600KP The assay has been performed by Eurofins Discovery.; conditions: ATP concentration 45.0 uM, Test compound concentration 10.0 uM
T2 sequence (whole entry): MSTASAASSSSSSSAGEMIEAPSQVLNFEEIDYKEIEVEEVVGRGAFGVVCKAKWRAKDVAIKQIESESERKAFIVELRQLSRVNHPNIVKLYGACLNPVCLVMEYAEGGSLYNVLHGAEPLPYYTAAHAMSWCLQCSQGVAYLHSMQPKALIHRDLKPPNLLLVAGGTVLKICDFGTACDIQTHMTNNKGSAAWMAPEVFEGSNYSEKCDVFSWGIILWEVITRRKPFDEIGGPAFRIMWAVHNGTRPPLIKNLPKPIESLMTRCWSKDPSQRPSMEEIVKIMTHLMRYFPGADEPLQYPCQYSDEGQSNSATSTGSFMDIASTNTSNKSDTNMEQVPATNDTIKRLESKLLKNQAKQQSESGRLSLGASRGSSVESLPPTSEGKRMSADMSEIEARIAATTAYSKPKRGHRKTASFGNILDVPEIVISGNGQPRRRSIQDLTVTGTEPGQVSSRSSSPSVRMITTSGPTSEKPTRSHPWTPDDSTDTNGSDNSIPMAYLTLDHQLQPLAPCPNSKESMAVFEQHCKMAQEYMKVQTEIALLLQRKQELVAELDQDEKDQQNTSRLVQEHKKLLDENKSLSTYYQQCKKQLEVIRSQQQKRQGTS

[9] = target: 5'-AMP-activated protein kinase catalytic subunit alpha-1 (Homo sapiens) (UniProt Q13131); assay: Enzymatic radiometric [Km ATP] KinaseProfiler LeadHunter assay, kinase: AMPK-alpha1, catalogue number: 14-840KP The assay has been performed by Eurofins Discovery.; conditions: ATP concentration 45.0 uM, Test compound concentration 10.0 uM
Chain of 5'-AMP-activated protein kinase catalytic subunit alpha-1 (Homo sapiens) (Q13131 whole entry, looked up): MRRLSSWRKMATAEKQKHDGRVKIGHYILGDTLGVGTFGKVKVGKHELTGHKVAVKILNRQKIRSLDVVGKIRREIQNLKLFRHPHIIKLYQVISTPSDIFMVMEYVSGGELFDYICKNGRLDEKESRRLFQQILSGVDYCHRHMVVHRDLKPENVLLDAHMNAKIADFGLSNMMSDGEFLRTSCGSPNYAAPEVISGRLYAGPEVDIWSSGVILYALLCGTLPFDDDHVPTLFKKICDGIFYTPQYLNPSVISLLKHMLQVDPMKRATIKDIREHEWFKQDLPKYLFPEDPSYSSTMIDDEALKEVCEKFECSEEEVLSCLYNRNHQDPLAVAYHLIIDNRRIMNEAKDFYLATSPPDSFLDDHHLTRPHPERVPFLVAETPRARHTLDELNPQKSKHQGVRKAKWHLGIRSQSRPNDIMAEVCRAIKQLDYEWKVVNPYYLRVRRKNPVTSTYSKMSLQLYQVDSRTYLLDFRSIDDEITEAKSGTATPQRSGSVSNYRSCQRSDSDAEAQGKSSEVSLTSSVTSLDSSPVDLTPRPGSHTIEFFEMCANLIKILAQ

[10] = target: T3, Serine/threonine-protein kinase 17A (Homo sapiens) (UniProt Q9UEE5); assay: Enzymatic radiometric [Km ATP] KinaseProfiler LeadHunter assay, kinase: DRAK1, catalogue number: 14-668KP The assay has been performed by Eurofins Discovery.; conditions: ATP concentration 10.0 uM, Test compound concentration 10.0 uM
T3 sequence (whole entry): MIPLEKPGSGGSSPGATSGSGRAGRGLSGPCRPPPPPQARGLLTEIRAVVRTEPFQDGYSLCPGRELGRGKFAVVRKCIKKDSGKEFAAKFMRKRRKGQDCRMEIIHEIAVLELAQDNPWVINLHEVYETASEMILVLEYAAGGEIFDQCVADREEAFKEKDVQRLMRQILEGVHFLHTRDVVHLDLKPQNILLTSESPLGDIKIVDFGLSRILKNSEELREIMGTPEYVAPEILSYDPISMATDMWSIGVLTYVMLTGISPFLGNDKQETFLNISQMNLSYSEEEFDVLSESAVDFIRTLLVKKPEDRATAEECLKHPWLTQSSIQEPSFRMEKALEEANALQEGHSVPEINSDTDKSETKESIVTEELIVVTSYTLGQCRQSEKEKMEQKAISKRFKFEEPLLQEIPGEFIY

[11] = target: Cyclin-dependent kinase 1/cyclin B (Homo sapiens) (UniProt P06493+P14635+Q8WWL7+O95067); assay: Enzymatic radiometric [Km ATP] KinaseProfiler LeadHunter assay, kinase: CDK1/cyclinB, catalogue number: 14-450KP The assay has been performed by Eurofins Discovery.; format: protein-complex assay; conditions: ATP concentration 45.0 uM, Test compound concentration 10.0 uM
[12] = target: CDK7/Cyclin H/MNAT1 (Homo sapiens) (UniProt P51946+P50613+P51948); assay: Enzymatic radiometric [Km ATP] KinaseProfiler LeadHunter assay, kinase: CDK7/cyclinH/MAT1, catalogue number: 14-476KP The assay has been performed by Eurofins Discovery.; format: protein-complex assay; conditions: ATP concentration 90.0 uM, Test compound concentration 10.0 uM

Chain of Casein kinase II subunit alpha' (Homo sapiens) (P19784 whole entry, looked up): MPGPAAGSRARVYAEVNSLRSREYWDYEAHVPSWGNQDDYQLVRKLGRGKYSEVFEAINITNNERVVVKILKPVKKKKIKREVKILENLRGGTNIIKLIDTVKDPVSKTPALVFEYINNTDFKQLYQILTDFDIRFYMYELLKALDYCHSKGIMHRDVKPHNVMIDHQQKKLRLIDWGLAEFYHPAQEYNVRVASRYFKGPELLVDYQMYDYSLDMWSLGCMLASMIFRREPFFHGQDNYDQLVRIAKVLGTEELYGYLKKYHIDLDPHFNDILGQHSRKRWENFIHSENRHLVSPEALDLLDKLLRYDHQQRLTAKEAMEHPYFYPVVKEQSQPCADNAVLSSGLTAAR

Row | SMILES | Activity [1] | Activity [2] | Activity [3] | Activity [4] | Activity [5] | Activity [6] | Activity [7] | Activity [8] | Activity [9] | Activity [10] | Activity [11] | Activity [12]
1 | CC(C)[C@@H](Nc1ncnc2[nH]ccc12)c1ccc2c(c1)S(=O)(=O)CCC2 | 90% | 84% | 110% | 102% | 99% | 89% | 101% | 83% | 94% | 96% | 129% | 85%
2 | C[C@H](C(=O)O)[C@@H](NC(=O)c1ncnc2[nH]ccc12)c1ccc(Br)cc1 | 91% | 99% | 90% | 93% | 110% | 110% | 97% | 95% | 93% | 98% | 92% | 99%
3 | CC(C)[C@H](Nc1ncnc2[nH]c(-c3cnn(C)c3C#N)cc12)c1ccc2c(n1)OCCO2 | 95% | 119% | 115% | 90% | 92% | 95% | 66% | 94% | 111% | 105% | 89% | 98%
4 | CC(C)[C@@H](Nc1ncnc2[nH]c(-c3cnn(C)c3C#N)cc12)c1ccc2c(n1)OCCO2 | 86% and 93% | 108% and 120% | 93% and 107% | 81% and 77% | 108% and 93% | 77% and 83% | 55% and 61% | 103% and 100% | 116% and 99% | 101% and 108% | 95% and 88% | 101% and 102%
5 | COc1ccc([C@H](Cc2nnn[nH]2)NC(=O)c2ncnc3[nH]ccc23)cc1 | 93% | 110% | 103% | 97% | 103% | 115% | 97% | 99% | 97% | 111% | 98% | 107%
6 | Cc1nn(C)cc1-c1cc2c(N[C@H](c3ccc4c(c3)S(=O)(=O)CCC4)C(C)C)ncnc2[nH]1 | 92% | 102% | 103% | 87% | 97% | 99% | 101% | 100% | 102% | 111% | 91% | 93%
7 | CNCc1cc(-c2cc3c(N[C@@H](c4ccc5c(c4)S(=O)(=O)CCC5)C(C)C)ncnc3[nH]2)co1 | 90% | 111% | 102% | 97% | 89% | 94% | 80% | 90% | 86% | 86% | 97% | 100%
8 | Cn1ncc(-c2cc3c(N[C@@H](c4ccc5c(n4)OCCO5)C(C)(C)C)ncnc3[nH]2)c1C#N | 92% | 125% | 129% | 99% | 100% | 100% | 73% | 95% | 109% | 108% | 97% | 108%
9 | COc1ccc([C@@H](Cc2nnn[nH]2)NC(=O)c2ncnc3[nH]ccc23)cc1 | 88% | 95% | 93% | 96% | 102% | 84% | 99% | 88% | 101% | 111% | 108% | 91%
10 | CC(C)[C@@H](Nc1ncnc2[nH]c(C(=O)N[C@@H]3CCN(C)C3)cc12)c1ccc2c(c1)S(=O)(=O)CCC2 | 98% | 118% | 98% | 102% | 83% | 99% | 99% | 100% | 107% | 105% | 103% | 101%
11 | CC(C)[C@H](Nc1ncnc2[nH]ccc12)c1ccc2c(c1)S(=O)(=O)CCC2 | 87% | 110% | 115% | 95% | 89% | 98% | 99% | 90% | 104% | 117% | 93% | 89%
12 | CNC(=O)Cn1cc(-c2cc3c(N[C@@H](c4ccc5c(c4)S(=O)(=O)CCC5)C(C)C)ncnc3[nH]2)cn1 | 88% | 107% | 104% | 98% | 90% | 94% | 87% | 99% | 104% | 111% | 88% | 95%
